Consider 2 compounds from PMC9011347, “Small-Molecule Inhibitors Targeting Lipolysis in Human Adipocytes” (Journal of the American Chemical Society, 2022).

The target of test [1] is T1, human ATGL (Homo sapiens, UniProt Q96AD5).
T1 construct: host or cells: Expi293 cells, crude lysate
T1 sequence (Q96AD5 1-504): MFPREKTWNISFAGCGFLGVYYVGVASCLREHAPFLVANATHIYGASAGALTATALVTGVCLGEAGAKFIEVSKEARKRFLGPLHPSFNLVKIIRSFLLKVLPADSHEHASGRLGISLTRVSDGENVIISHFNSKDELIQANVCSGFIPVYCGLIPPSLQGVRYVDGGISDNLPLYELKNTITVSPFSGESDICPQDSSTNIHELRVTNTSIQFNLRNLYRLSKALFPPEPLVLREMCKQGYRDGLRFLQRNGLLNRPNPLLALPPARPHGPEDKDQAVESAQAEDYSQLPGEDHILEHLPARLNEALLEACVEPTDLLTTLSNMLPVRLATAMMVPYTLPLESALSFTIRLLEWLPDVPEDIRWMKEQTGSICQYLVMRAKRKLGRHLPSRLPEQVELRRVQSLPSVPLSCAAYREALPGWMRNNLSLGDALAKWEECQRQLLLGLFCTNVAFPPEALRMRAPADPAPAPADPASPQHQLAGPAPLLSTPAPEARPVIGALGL
More on the design: method as in PMID 28327588. Conditions: cited from earlier work.

Test [2] concerns HepG2^AKO cells. Briefly: Seahorse cellular respiration (OCR) in ATGL knockout cells. Type of test: cell-based, human. The settings on record: NG-497 40 μM, galactose medium. On the procedure:
(a) HepG2 cells were treated with NG-497 (40 μM) or DMSO as control and oxygen consumption rate (OCR) was determined in Seahorse growth medium supplemented with glucose (25 mM) using the SeaHorse XF96 extracellular flux analyzer. OCR was determined after subsequent addition of 1 μM Oligomycin (ATP-synthase inhibitor), 1 μM FCCP (uncoupler), and 1 μM antimycin/rotenone (electron transport chain inhibitors). (b) Statistical analysis of basal respiration (BR), maximal respiration (MR), proton leak (PL), ATP production (ATPP), spare respiratory capacity (SRC), and nonmitochondrial oxygen consumption (NMOC) of control and NG-497-treated cells. (c) Extracellular acidification rate (ECAR) and (d) OCR of HepG2 cells were determined in Seahorse growth medium supplemented with glucose (25 mM) or galactose (10 mM). […] Growth of cells expressing (HepG2^control) or lacking functional ATGL (HepG2^AKO) was determined using a BioRad cell analyzer. ATGL expression was analyzed by Western blotting analysis using an anti-ATGL antibody and GAPDH as a loading control (inset). (h) Acylglycerol content of HepG2^control and HepG2^AKO cells was determined by a commercial kit (TG Infinity reagent, Thermo Fisher Scientific). […] Statistical significance was determined via Student’s t test (*p < 0.05; **p < 0.01; ***p < 0.001) or ANOVA followed by Bonferroni post hoc test (^#p < 0.05; ^##p < 0.01; ^###p < 0.001). […]

Consider `CN(C)C(=O)Nc1cccc(-c2ccc(N(C)C)cc2)c1` [Atglistatin, reference compound], for which the “efficacy against human ATGL” value in test [1] is recorded as “ineffective”.

For `CCOc1ccc(-c2cc(OC)cc(C(=O)OC(C)C)n2)cc1` [NG-497], in test [2], the effect on respiration result is given as “no effect on respiration”.
